Data from BigSolDB 2.1.

CC1(C)CO[P+]([O-])(Oc2c(Br)cc(Br)cc2Br)OC1
solubility (mole fraction)
Conditions | in THF | in acetone | in acetonitrile | in chloroform | in dichloromethane | in ethanol | in ethyl acetate | in methanol | in methyl acetate | in toluene
288.15 K | – | – | – | 0.0801 | 0.0492 | – | – | – | 0.0053 | –
293.15 K | 0.024 | 0.0131 | 0.00399 | 0.0844 | 0.0546 | 0.0025 | 0.00497 | 0.00195 | 0.00649 | 0.00784
298.15 K | 0.0258 | 0.0153 | 0.00504 | 0.0882 | 0.0594 | 0.00298 | 0.00564 | 0.0024 | 0.00765 | 0.009
303.15 K | 0.0303 | 0.0171 | – | 0.0947 | 0.0653 | 0.00358 | – | 0.00296 | 0.00867 | 0.0103
308.15 K | 0.0329 | 0.0194 | 0.00755 | 0.1 | 0.0712 | 0.00414 | 0.00748 | 0.00354 | 0.0107 | –
313.15 K | 0.0374 | 0.0226 | 0.00936 | 0.106 | – | 0.00465 | 0.00853 | 0.00424 | 0.0119 | 0.0145
318.15 K | 0.0409 | 0.0254 | – | 0.113 | – | 0.00556 | 0.00951 | – | 0.0138 | –
323.15 K | 0.0448 | 0.0295 | 0.0128 | – | – | 0.00643 | 0.0111 | 0.00614 | 0.0163 | 0.0195
328.15 K | – | – | – | 0.124 | – | – | 0.0127 | – | – | –
333.15 K | – | – | 0.0184 | – | – | 0.00795 | 0.0143 | 0.0081 | – | 0.0268
343.15 K | – | – | 0.0265 | – | – | – | – | – | – | 0.0349
